Measured values as given in ChEMBL document CHEMBL6109081, “Discovery and optimization of phenazopyridine hydrochloride as novel SARS-CoV-2 RdRp inhibitors” (Eur J Med Chem, 2025).
Calls of active or inactive are those of the source. The calls are words filed in the database; no cut-off is given here.

Legend:
[1] = Cytotoxicity against HEK293T cells assessed as inhibition of cell growth measured after 48 hrs by CCK8 assay; type: toxicity, cell-based, HEK-293T; details: human
[2] = Antiviral activity against SARS-CoV-2 infected in HEK293T cells assessed as inhibition of SARS-CoV-2 RdRp in the presence of coelenterazine-h incubated for 24 hrs by Gaussia luciferase reporter assay; type: functional, cell-based; details: Homo sapiens, HEK-293T
[3] = target: Replicase polyprotein 1ab (Severe acute respiratory syndrome coronavirus 2) (UniProt P0DTD1); assay: Inhibition of SARS-CoV-2 RdRp in HEK-293T cells at 10 uM measured after 24 hrs relative to control; type: cell-based
[4] = target: Replicase polyprotein 1ab (Severe acute respiratory syndrome coronavirus 2) (UniProt P0DTD1); assay: (§1) Inhibition of SARS-CoV-2 RdRp mediated RNA synthesis in HEK-293T cells cotransfected with pCoV-GLuc and pCMV6-nsp12/nsp7/nsp8 assessed as reduction in minus strand RNA level by measuring GLuc RNA level for 24 hrs in the presence of coelenterazine-h by Gaussia luciferase reporter assay; type: cell-based; details: dose 2-10 µM
[5] = target: T1, Replicase polyprotein 1ab (Severe acute respiratory syndrome coronavirus 2, UniProt P0DTD1); assay: Inhibition of his tagged SARS-CoV-2 nsp12 in HEK-293T cells cotransfected with pCoV-GLuc incubated for 24 hrs in the presence of coelenterazine-h by Gaussia luciferase reporter assay; type: cell-based
[6] = target: T1, Replicase polyprotein 1ab; assay: Inhibition of SARS-CoV-2 nsp14 in HEK-293T cells cotransfected with pCoV-GLuc incubated for 24 hrs in the presence of coelenterazine-h by Gaussia luciferase reporter assay; type: cell-based
[7] = Selectivity index, ratio of CC50 for cytotoxicity against HEK293T cells assessed as inhibition of cell growth to EC50 for antiviral activity against SARS-CoV-2 infected in HEK293T cells assessed as inhibition of SARS-CoV-2 RdRp; type: toxicity, cell-based; details: human, read-out: Ratio CC50/EC50
[8] = target: Replicase polyprotein 1ab (Severe acute respiratory syndrome coronavirus 2) (UniProt P0DTD1); assay: (§2) Inhibition of SARS-CoV-2 RdRp mediated RNA synthesis in HEK-293T cells cotransfected with pCoV-GLuc and pCMV6-nsp12/nsp7/nsp8 assessed as reduction in plus strand RNA level by measuring GLuc RNA level for 24 hrs in the presence of coelenterazine-h by Gaussia luciferase reporter assay; type: cell-based; details: dose 2-10 µM
[9] = test system: Human coronavirus NL63; assay: Antiviral activity against HCoV-NL63 infected in Rhesus monkey LLC-MK2 cells at a MOI of 0.01 assessed as inhibition of viral replication measured after 120 hrs by MTS assay; type: functional, organism-based; details: Human coronavirus NL63, LLC-MK2, 120 h
[10] = target: T1, Replicase polyprotein 1ab; assay: Binding affinity to SARS-CoV-2 nsp12 expressed in Escherichia coli BL21 (DE3) cells using biotinylated EZ-link NHS-LC-LC assessed as dissociation constant at 6.25 to 100 uM incubated for 180 sec by BLI assay
[11] = test system: Human coronavirus OC43; assay: Potency index, ratio of PAP EC50 to test compound EC50 for antiviral activity against HCoV-OC43 infected in human HCT-8 cells assessed as reduction in virus-induced cytopathic effect measured after 120 hrs by MTS assay; type: functional
[12] = target: Replicase polyprotein 1ab (Severe acute respiratory syndrome coronavirus 2) (UniProt P0DTD1); assay: as §1, with “RNA level at 10 uM by measuring” for “RNA level by measuring”, “reporter assay relative to control” for “reporter assay”; type: cell-based
[13] = Cytotoxicity against Rhesus monkey LLC-MK2 cells incubated for 48 hrs by method; type: toxicity, cell-based, Macaca mulatta
[14] = target: T1, Replicase polyprotein 1ab; assay: Binding affinity to SARS-CoV-2 nsp12 expressed in Escherichia coli BL21 (DE3) cells using biotinylated EZ-link NHS-LC-LC assessed as dissociation constant incubated for 180 sec by BLI assay
[15] = test system: Human coronavirus OC43; assay: Antiviral activity against HCoV-OC43 infected in human HCT-8 cells at a MOI of 0.1 assessed as inhibition of viral replication measured after 5 days by MTS assay; type: functional, organism-based; details: Betacoronavirus 1, HCT-8, 120 h
[16] = Cytotoxicity against human HCT-8 cells incubated for 48 hrs by CCK8 method; type: toxicity, cell-based
[17] = test system: Human coronavirus NL63; assay: Potency index, ratio of PAP EC50 to test compound EC50 for antiviral activity against HCoV-NL63 infected in Rhesus monkey LLC-MK2 cells assessed as reduction in viru-induced cytopathic effect measured after 120 hrs by MTS assay; type: functional
[18] = target: Replicase polyprotein 1ab (Severe acute respiratory syndrome coronavirus 2) (UniProt P0DTD1); assay: as §2, with “RNA level at 10 uM by measuring” for “RNA level by measuring”, “reporter assay relative to control” for “reporter assay”; type: cell-based
[19] = test system: Human coronavirus OC43; assay: Antiviral activity against HCoV-OC43(Rluc) infected in BHK-21 cells assessed as inhibition of viral infection at 10 uM pre-infected with virus for 2 hrs followed by compound addition measured after 24 hrs by luciferase assay; type: functional, organism-based
[20] = target: Replicase polyprotein 1ab (Severe acute respiratory syndrome coronavirus 2) (UniProt P0DTD1); assay: Inhibition of SARS-CoV-2 3CLpro in HEK293T cells at 2 to 20 uM measured after 48 hrs by Western blot analysis; type: cell-based; details: dose 2-20 µM
[21] = test system: Human coronavirus OC43; assay: Antiviral activity against HCoV-OC43 infected in golden hamster BHK-21 cells assessed as inhibition of viral infection at 10 uM measured after 24 hrs by luciferase assay; type: functional, organism-based
[22] = test system: Human coronavirus OC43; assay: Antiviral activity against HCoV-OC43(Rluc) infected in golden hamster BHK-21 cells assessed as inhibition of viral replication at 10 uM pre-infected with virus for 1 hrs followed by compound addition and measured after 24 hrs by luciferase assay; type: functional, organism-based
[23] = test system: SARS-CoV-2; assay: Antiviral activity against SARS-CoV-2 C-Tan-n-CoV Wuhan infected in African green monkey Vero E6 cells assessed as inhibition of viral replication incubated for 24 hrs by qRT-PCR analysis; type: functional, organism-based; details: Severe acute respiratory syndrome coronavirus 2, C-Tan-n-CoV Wuhan, Vero C1008, 24 h

Nc1ccc(/N=N/c2cccc3c2CCCC3)c(N)n1
CC50 at 48 h [1]: 78.9 µM | EC50 [2]: 7.35 µM | inhibition [3]: 71.8%

Nc1ccc(/N=N/c2ccccc2)c(NC(=O)[C@@H](N)Cc2ccccc2)n1
CC50 at 48 h [1]: > 100 µM | EC50 [2]: 8.77 µM | inhibition [3]: 56.7%

Cc1ccc(/N=N/c2ccc(N)nc2N)cc1
CC50 at 48 h [1]: > 100 µM | EC50 [2]: 8.59 µM | inhibition [3]: 59.1%

CN(C)c1ccc(/N=N/c2ccc(N)nc2N)cc1
CC50 at 48 h [1]: > 100 µM | EC50 [2]: 9.52 µM | inhibition [3]: 50.1%

Nc1ccc(/N=N/c2ccc(OCc3ccccc3)cc2)c(N)n1
CC50 at 48 h [1]: > 100 µM | EC50 [2]: 7.16 µM | inhibition [3]: 65.3%

Nc1cc(Br)c(/N=N/c2ccccc2)c(N)n1
inhibition [3]: 41.9%

CC(C)(C)OC(=O)NCC(=O)Nc1nc(N)ccc1/N=N/c1ccccc1
CC50 at 48 h [1]: > 100 µM | EC50 [2]: 1.7 µM | inhibition [3]: 77.4%

Nc1ccc(/N=N/c2ccccc2)c(NC(=O)[C@@H](N)Cc2c[nH]c3ccccc23)n1
inhibition [4]: Dose-dependent-effect | EC50 [5]: 1.64 µM | EC50 [6]: 1.53 µM | CC50 at 48 h [1]: 81.9 µM | EC50 [2]: 1.64 µM | selectivity ratio [7]: 50 | inhibition [8]: Dose-dependent-effect | inhibition [3]: 82.7%

CC(C)(C)OC(=O)N[C@@H](Cc1ccccc1)C(=O)Nc1nc(N)ccc1/N=N/c1ccccc1
CC50 at 48 h [1]: > 100 µM | EC50 [2]: 2.64 µM | inhibition [3]: 79.8%

Nc1ccc(/N=N/c2ccc(Cl)cc2)c(N)n1
CC50 at 48 h [1]: > 100 µM | EC50 [2]: 7.64 µM | inhibition [3]: 64.5%

C[C@H](NC(=O)OC(C)(C)C)C(=O)Nc1nc(N)ccc1/N=N/c1ccccc1
inhibition [4]: Dose-dependent-effect | EC50 [5]: 1.42 µM | EC50 [6]: 1.73 µM | CC50 at 48 h [1]: > 100 µM | EC50 [2]: 1.42 µM | selectivity ratio [7]: 70.4 | inhibition [8]: Dose-dependent-effect | inhibition [3]: 86%

Nc1ccc(/N=N/c2ccc([N+](=O)[O-])cc2)c(N)n1
inhibition [3]: 45.8%

Cc1cc(N)nc(N)c1/N=N/c1ccccc1
inhibition [3]: 49.9%

Oc1ccc(/N=N/c2ccccc2)cc1
inhibition [3]: 45.4%

CC(C)(C)OC(=O)N1CCC[C@H]1C(=O)Nc1nc(N)ccc1/N=N/c1ccccc1
inhibition [4]: Dose-dependent-effect | EC50 [9]: 2.99 µM | EC50 [5]: 1.11 µM | EC50 [6]: 1.36 µM | Kd [10]: 2.41 µM | Ratio EC50 [11]: 3.28 | inhibition [12]: 90% | CC50 at 48 h [13]: > 100 µM | Kd [14]: Dose-dependent-effect | CC50 at 48 h [1]: > 100 µM | EC50 [15]: 1.43 µM | EC50 [2]: 1.11 µM | selectivity ratio [7]: 6.64 | inhibition [8]: Dose-dependent-effect | CC50 at 48 h [16]: > 100 µM | Ratio EC50 [17]: 1.85 | inhibition [3]: 88.5%

CCC(CC)COC(=O)[C@H](C)N[P@](=O)(OC[C@H]1O[C@@](C#N)(c2ccc3c(N)ncnn23)[C@H](O)[C@@H]1O)Oc1ccccc1
inhibition [4]: Dose-dependent-effect | EC50 [9]: 2.67 µM | inhibition [12]: 80% | CC50 at 48 h [13]: > 100 µM | CC50 at 48 h [1]: > 100 µM | EC50 [15]: 1.89 µM | inhibition [18]: 80% | inhibition [8]: Dose-dependent-effect | CC50 at 48 h [16]: > 100 µM

Nc1nc(N)c(/N=N/c2ccccc2)cc1Br
CC50 at 48 h [1]: > 100 µM | EC50 [2]: 13.3 µM | inhibition [3]: 51.1%

Nc1ccc(/N=N/c2ccc(C(F)(F)F)cc2)c(N)n1
CC50 at 48 h [1]: > 100 µM | EC50 [2]: 6.32 µM | inhibition [3]: 74.9%

Nc1ccc(/N=N/c2ccc(F)cc2)c(N)n1
CC50 at 48 h [1]: > 100 µM | EC50 [2]: 8.73 µM | inhibition [3]: 64.9%

Nc1ccc(/N=N/c2ccc(Cc3ccccc3)cc2)c(N)n1
CC50 at 48 h [1]: > 100 µM | EC50 [2]: 6.47 µM | inhibition [3]: 59.3%

C[C@H](N)C(=O)Nc1nc(N)ccc1/N=N/c1ccccc1
inhibition [3]: 48.2%

Nc1ccc(/N=N/c2ccccc2)c(NC(=O)[C@@H]2CCCN2)n1
CC50 at 48 h [1]: > 100 µM | EC50 [2]: 3.78 µM | inhibition [3]: 72.9%

COc1ccc(/N=N/c2ccc(N)nc2N)cc1
inhibition [3]: 48%

CSCC[C@H](N)C(=O)Nc1nc(N)ccc1/N=N/c1ccccc1
CC50 at 48 h [1]: > 100 µM | EC50 [2]: 7.26 µM | inhibition [3]: 55.3%

NCC(=O)Nc1nc(N)ccc1/N=N/c1ccccc1
CC50 at 48 h [1]: > 100 µM | EC50 [2]: 9.28 µM | inhibition [3]: 52.4%

Nc1cc(-c2ccccc2)c(/N=N/c2ccccc2)c(N)n1
CC50 at 48 h [1]: > 100 µM | EC50 [2]: 8.26 µM | inhibition [3]: 65.6%

CC(C)(C)OC(=O)N[C@@H](Cc1c[nH]c2ccccc12)C(=O)Nc1nc(N)ccc1/N=N/c1ccccc1
CC50 at 48 h [1]: 79.2 µM | EC50 [2]: 3.79 µM | inhibition [3]: 79.8%

Nc1ccc(/N=N/c2ccc(Br)cc2)c(N)n1
CC50 at 48 h [1]: > 100 µM | EC50 [2]: 8.61 µM | inhibition [3]: 71.8%

CSCC[C@H](NC(=O)OC(C)(C)C)C(=O)Nc1nc(N)ccc1/N=N/c1ccccc1
inhibition [4]: Dose-dependent-effect | EC50 [5]: 1.33 µM | EC50 [6]: 1.38 µM | CC50 at 48 h [1]: > 100 µM | EC50 [2]: 1.33 µM | selectivity ratio [7]: 75.2 | inhibition [8]: Dose-dependent-effect | inhibition [3]: 83%

Nc1nc(N)c(/N=N/c2ccccc2)cc1/N=N/c1ccccc1
inhibition [3]: 46%

Cl.Nc1ccc(/N=N/c2ccccc2)c(N)n1 [PHENAZOPYRIDINE HYDROCHLORIDE]
inhibition [4]: Dose-dependent-effect | EC50 [9]: 5.52 µM | inhibition [19]: Active | inhibition [20]: inactive | EC50 [5]: 7.37 µM | EC50 [6]: 8.01 µM | Kd [10]: 5 µM | CC50 at 48 h [13]: > 100 µM | Kd [14]: Dose-dependent-effect | inhibition [21]: Active | inhibition [22]: Active; Minor Effects Was Observed | CC50 at 48 h [1]: > 100 µM | EC50 [15]: 4.69 µM | EC50 [2]: 7.37 µM | inhibition [18]: 90% | selectivity ratio [7]: > 13.6 | inhibition [8]: Dose-dependent-effect | CC50 at 48 h [16]: > 100 µM | EC50 [23]: 5.37 µM | inhibition [3]: 50%
